The structures appear in SMILES notation.

For one test, the system named is PC-3-luc cells. Nature of the test: Orthotopic PC-3 xenograft model (tumorigenicity of pre-treated cells). As to conditions: cells pre-treated with 5 μg/ml for 24 hrs; two weeks after implantation. It counts as in vivo, CB-17 SCID mice. The protocol: 5.1.9 Orthotopic PC-3 xenograft model—The orthotopic model was established with procedures known in the art. Briefly, 8-week-old CB-17 SCID mice were anesthetized and placed under a dissecting microscope (Olympus, Tokyo, Japan). An incision at the midline of abdomen was made and the dorsal prostate was exposed at the base of the bladder. Equal amount of viable PC3-luc cells (2.6×10^4 cells resuspended in 5 μl of serum free RPMI) with or without prior γ-T3 treatment for 24 hrs were injected into the dorsal prostates of the mice. Organs were replaced and the abdomen was closed. To detect the bioluminescent signal of the cells, mice were anesthetized and then injected with 80 mg/kg of D-luciferin solution by i.p. (Xenogen Corporation, Cranbury, N.J.). Signal was captured by Xenogen IVIS 100 series imaging system. Tumors progression was monitored by measuring the bioluminescent signal (units of photons per second per unit area) every 2 weeks until 6-week post tumor implantation. Mice were sacrificed by cervical dislocation and tumors were collected and fixed in 10% formalin. All surgical and animal handling procedures were carried out according to the guidelines of the Committee on the Use of Live Animals in Teaching and Research (CULATR), The University of Hong Kong.

Another test has as its system DU145 prostaspheres. Nature of the test: Treatment of pre-formed CSC-enriched DU145 prostaspheres. In kind it is cell-based. The conditions noted are these: 48 hrs. As to the method: (A) CSC enriched prostaspheres were formed by maintaining DU145 cells in non-adherent culture supplemented with serum replacement medium for 14 days. The prostaspheres were then treated with either vehicle, γ-T3 (10, 20 μg/ml) or Docetaxel (Doc, 40 ng/ml) for 48 hrs. Spheroids were counted under microscope before and after treatment. Results were presented as mean % change in spheroid number to control±s.d. Note that spheroids were highly sensitive to γ-T3 treatment but resistant to high dose of Docetaxel. (B) Images of prostaspheres after 48 hrs treatment with vehicle, 40 ng/ml of Docetaxel and 10 μg/ml of γ-T3.
5.1.7 Spheroid formation assay—Spheroid formation assay was performed with a protocol modified from previous study (Folkins C, p3560). Briefly, cells were first trypsinized, washed with 1× PBS and resuspended in DMEM F12 medium. Two hundred cells were added into each well of a 24-well-plate pre-coated with polyHEMA (Sigma, St. Louis, Mo.). Cells will be grown in DMEM/F12 mem (Invitrogen, Carlsbad, Calif.) supplemented with 4 μg/mL insulin (Sigma, St. Louis, Mo.), B27 (Invitrogen, Carlsbad, Calif.), 20 ng/mL EGF (Sigma, St. Louis, Mo.), and 20 ng/mL basic FGF (Invitrogen, Carlsbad, Calif.). Fresh medium with the above supplements was added every day. γ-T3 was added at indicated time points and the number of spheroids was counted at day 14 of the assay or at the end of the treatment. Each experiment was repeated in triplicates and each data point represented the mean and standard derivation.

Consider `CC(C)=CCC/C(C)=C/CC/C(C)=C/CCC1(C)CCc2cc(O)c(C)c(C)c2O1` (stereo not drawn) [γ-T3, 7,8-dimethyltocotrienol], for which the “mice that failed to develop visible tumor” value in the test with PC-3-luc cells is 5 out of 7. Further, the entries for the “decrease of spheroid number” value in the test with DU145 prostaspheres (10 μg/ml) and with DU145 prostaspheres (20 μg/ml) were 70% and 76%, respectively.
